Where “and” joins values, the source holds several entries; their conditions need not be identical. Equal entries are not always repeated. Inconclusive results and toxic doses are left out.

The test relates to P388 leukemia ip, CD2F1 mice, survival T/C. Briefly: NCI In Vivo Anticancer Drug Screen. Data for tumor model P388 Leukemia (intraperitoneal) in CD2F1 (CDF1) mice. The settings on record: endpoint: median survival time, higher = longer survival. The gist of the method:
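Mice carrying the transplanted tumor received test compound or vehicle. Survival was recorded in each group, and the value is the treated-group measurement divided by that of the vehicle-treated control group.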

[1] abbreviates: dose: 25.0 mg/kg/injection, schedule: Q01DX005 (ip), vehicle: Klucel (hydroxypropylcellulose) (HPC).
The mark [2] stands for this setting: dose: 50.0 mg/kg/injection, schedule: Q01DX005 (ip), vehicle: Klucel (hydroxypropylcellulose) (HPC).
Setting [3] is: dose: 100.0 mg/kg/injection, schedule: Q01DX005 (ip), vehicle: Klucel (hydroxypropylcellulose) (HPC).
Where [4] appears, read: dose: 200.0 mg/kg/injection, schedule: Q01DX005 (ip), vehicle: Klucel (hydroxypropylcellulose) (HPC).
Setting [5] is: dose: 50.0 mg/kg/injection, schedule: Q01DX009 (ip), vehicle: saline with Tween-80.
Where [6] appears, read: dose: 100.0 mg/kg/injection, schedule: Q01DX009 (ip), vehicle: saline with Tween-80.
The mark [7] stands for this setting: dose: 50.0 mg/kg/injection, schedule: Q01DX009 (ip), vehicle: Klucel (hydroxypropylcellulose) (HPC).
[8] abbreviates: dose: 100.0 mg/kg/injection, schedule: Q01DX009 (ip), vehicle: Klucel (hydroxypropylcellulose) (HPC).
The mark [9] stands for this setting: dose: 200.0 mg/kg/injection, schedule: Q01DX009 (ip), vehicle: Klucel (hydroxypropylcellulose) (HPC).
The mark [10] stands for this setting: dose: 50.0 mg/kg/injection, schedule: Q01DX009 (ip), vehicle: saline.
Setting [11] is: dose: 100.0 mg/kg/injection, schedule: Q01DX009 (ip), vehicle: saline.
Setting [12] is: dose: 200.0 mg/kg/injection, schedule: Q01DX009 (ip), vehicle: saline with Tween-80.

With `C=C=C(COC(C)=O)ON1CCC(C)CC1`, the T/C runs as follows: (dose: 9.0 mg/kg/injection, schedule: Q01DX001 (ip), vehicle: saline) 102 % of control; (dose: 18.12 mg/kg/injection, schedule: Q01DX001 (ip), vehicle: saline) 102 % of control; (dose: 36.25 mg/kg/injection, schedule: Q01DX001 (ip), vehicle: saline) 100 % of control.
Regarding `[B-][N+]12CC[N+]([B-])(CC1)CC2`, the T/C is, setting by setting: (dose: 0.06 mg/kg/injection, schedule: Q04DX003 (ip), vehicle: other) 100 % of control; (dose: 0.13 mg/kg/injection, schedule: Q04DX003 (ip), vehicle: other) 100 % of control; (dose: 0.25 mg/kg/injection, schedule: Q04DX003 (ip), vehicle: other) 100 % of control; (dose: 15.6 micrograms/kg/injection, schedule: Q01DX009 (ip), vehicle: other) 100 % of control; (dose: 31.3 micrograms/kg/injection, schedule: Q01DX009 (ip), vehicle: other) 100 % of control; (dose: 62.5 micrograms/kg/injection, schedule: Q01DX009 (ip), vehicle: other) 100 % of control. In addition, the T/C runs as follows: (dose: 62.5 micrograms/kg/injection, schedule: Q01DX009 (ip), vehicle: saline) 87 % of control; (dose: 125.0 micrograms/kg/injection, schedule: Q01DX009 (ip), vehicle: saline) 104 % of control.
`Cc1ccc(S(=O)(=O)NC(=O)Nc2nccs2)cc1`: the T/C (dose: 12.5 mg/kg/injection, schedule: Q01DX009 (ip), vehicle: distilled water + Tween-80) is 99 % of control; the T/C (dose: 25.0 mg/kg/injection, schedule: Q01DX009 (ip), vehicle: distilled water + Tween-80) is 92 % of control; the T/C (dose: 50.0 mg/kg/injection, schedule: Q01DX009 (ip), vehicle: distilled water + Tween-80) was 97 % of control; the T/C (dose: 100.0 mg/kg/injection, schedule: Q01DX009 (ip), vehicle: distilled water + Tween-80) is 106 % of control; the T/C (dose: 200.0 mg/kg/injection, schedule: Q01DX009 (ip), vehicle: distilled water + Tween-80) was 99 % of control.
As for `C[Si](C)(C)C12CC3(CCCCC3)C1NC(=O)NC2=O` (centres undefined), the T/C reads like this: under setting [1], 108 % of control; under setting [2], 96 % of control; under setting [3], 90 % of control; under setting [4], 88 % of control.
As for `CN(C)C(=O)CC(O)c1ccccc1` (centres undefined), the T/C runs as follows: (dose: 50.0 mg/kg/injection, schedule: Q01DX005 (ip), vehicle: saline) 102 % of control; (dose: 100.0 mg/kg/injection, schedule: Q01DX005 (ip), vehicle: saline) 105 % of control; (dose: 200.0 mg/kg/injection, schedule: Q01DX005 (ip), vehicle: saline) 100 % of control.
On to `C#CC(C)ON1C(=O)c2ccccc2C1=O` (centres undefined), for which the T/C runs as follows: (dose: 100.0 mg/kg/injection, schedule: Q01DX001 (ip), vehicle: other) 109 % of control; (dose: 200.0 mg/kg/injection, schedule: Q01DX001 (ip), vehicle: other) 100 % of control; (dose: 400.0 mg/kg/injection, schedule: Q01DX001 (ip), vehicle: other) 100 % of control.
In the case of `Cc1ccc2c(c1)N=C(Nc1ccccc1)N=S2(C)=O` (centres undefined), the T/C was 93 % of control (dose: 12.5 mg/kg/injection, schedule: Q01DX009 (ip), vehicle: saline with Tween-80); 92 % of control (dose: 25.0 mg/kg/injection, schedule: Q01DX009 (ip), vehicle: saline with Tween-80); 117 % of control and 119 % of control under setting [5]; 104 % of control under setting [6].
Turning to `CN1CCc2sccc2C(c2ccccc2)O1` (centres undefined), the T/C reads like this: under setting [2], 112 % of control; under setting [3], 104 % of control; under setting [4], 113 % of control.
As to `COC(=O)c1cc2c(oc1=O)-c1ccccc1N(C=O)C2`, the T/C (dose: 60.0 mg/kg/injection, schedule: Q01DX005 (ip), vehicle: saline with Tween-80) was 86 % of control; the T/C (dose: 120.0 mg/kg/injection, schedule: Q01DX005 (ip), vehicle: saline with Tween-80) was 88 % of control; the T/C (dose: 240.0 mg/kg/injection, schedule: Q01DX005 (ip), vehicle: saline with Tween-80) is 98 % of control.
Consider `C=C(CCCCC)C(=O)/C=C/c1ccccc1`, for which the T/C is, setting by setting: under setting [7], 103 % of control; under setting [8], 107 % of control; under setting [9], 118 % of control.
Take `CN1CCC(c2ccccc2)(c2ccccc2)OC1`: the T/C is, setting by setting: (dose: 25.0 mg/kg/injection, schedule: Q01DX009 (ip), vehicle: saline) 100 % of control; under setting [10], 100 % of control; under setting [11], 113 % of control.
Take `Cc1nc(N)[nH]c(=O)c1N`: the T/C is, setting by setting: (dose: 12.5 mg/kg/injection, schedule: Q01DX005 (ip), vehicle: Klucel (hydroxypropylcellulose) (HPC)) 99 % of control; under setting [1], 108 % of control; under setting [2], 103 % of control and 98 % of control; under setting [3], 110 % of control.
As for `CCCCCCC(=O)CC(SCC)c1c(Cl)cccc1Cl` (centres undefined), the T/C under setting [5] is 89 % of control, the T/C under setting [6] was 98 % of control and the T/C under setting [12] is 100 % of control.
For `Clc1cccc(Cl)c1C(Nc1ncccn1)Nc1ncccn1`, the T/C runs as follows: under setting [2], 106 % of control; under setting [3], 100 % of control; under setting [4], 97 % of control.
`ClC1CCC[N-]C1.ClC1CCC[N-]C1.[Cl][Pt+2][Cl]` (centres undefined): the T/C reads like this: (dose: 0.78 mg/kg/injection, schedule: Q01DX009 (ip), vehicle: saline) 97 % of control; (dose: 1.56 mg/kg/injection, schedule: Q01DX009 (ip), vehicle: saline) 97 % of control; (dose: 3.13 mg/kg/injection, schedule: Q01DX009 (ip), vehicle: saline) 101 % of control; (dose: 6.25 mg/kg/injection, schedule: Q01DX009 (ip), vehicle: saline) 96 % of control; (dose: 12.5 mg/kg/injection, schedule: Q01DX009 (ip), vehicle: Klucel (hydroxypropylcellulose) (HPC)) 118 % of control and 123 % of control; (dose: 12.5 mg/kg/injection, schedule: Q01DX009 (ip), vehicle: saline) 108 % of control. The T/C was 121 % of control (dose: 25.0 mg/kg/injection, schedule: Q01DX009 (ip), vehicle: Klucel (hydroxypropylcellulose) (HPC)); 101 % of control and 122 % of control under setting [7].
As for `CCC1CC2CN(CCc3c([nH]c4ccccc34)C(C(=O)OC)(c3cc4c(cc3OC)N(C)C3C(O)(C(=O)OC)C(OC(C)=O)C5(CC)CCCN6CCC43C65)C2)C1` (centres undefined), the T/C is, setting by setting: (dose: 1.0 mg/kg/injection, schedule: Q01DX001 (ip), vehicle: water) 124 % of control; (dose: 2.0 mg/kg/injection, schedule: Q01DX001 (ip), vehicle: water) 122 % of control; (dose: 16.0 mg/kg/injection, schedule: Q01DX001 (ip), vehicle: water) 153 % of control and 154 % of control; (dose: 32.0 mg/kg/injection, schedule: Q01DX001 (ip), vehicle: water) 163 % of control.
For the compound `O=C(CC(=O)Nc1ccccc1)Cc1ccccc1`, the T/C is 102 % of control under setting [7], 97 % of control under setting [8] and 99 % of control under setting [9].
Turning to `COP(=O)(O)OC`, the T/C (dose: 200.0 mg/kg/injection, schedule: Q01DX001 (ip), vehicle: Klucel (hydroxypropylcellulose) (HPC)) is 88 % of control and the T/C (dose: 400.0 mg/kg/injection, schedule: Q01DX001 (ip), vehicle: Klucel (hydroxypropylcellulose) (HPC)) is 100 % of control.
Turning to `COC(=O)c1c(-c2ccccc2)c(C=O)n(C)c1C`, the T/C (dose: 50.0 mg/kg/injection, schedule: Q01DX005 (ip), vehicle: saline with Tween-80) was 99 % of control; the T/C (dose: 100.0 mg/kg/injection, schedule: Q01DX005 (ip), vehicle: saline with Tween-80) is 98 % of control; the T/C (dose: 200.0 mg/kg/injection, schedule: Q01DX005 (ip), vehicle: saline with Tween-80) was 91 % of control.
As for `COc1ccc(O)c(C(c2cc(OC)ccc2O)c2cc(OC)ccc2O)c1`, the T/C runs as follows: under setting [5], 115 % of control; under setting [6], 115 % of control; under setting [12], 115 % of control.
As for `C[Si]1(C)CCCCC1`, the T/C by setting is: under setting [10], 102 % of control; under setting [11], 95 % of control; (dose: 200.0 mg/kg/injection, schedule: Q01DX009 (ip), vehicle: saline) 101 % of control; (dose: 400.0 mg/kg/injection, schedule: Q01DX009 (ip), vehicle: saline) 102 % of control.

(Values after PubChem BioAssay AID330 (DTP/NCI, 2004).)
